Data reported in ChEMBL document CHEMBL2203251, “Discovery of two clinical histamine H(3) receptor antagonists: trans-N-ethyl-3-fluoro-3-[3-fluoro-4-(pyrrolidinylmethyl)phenyl]cyclobutanecarboxamide (PF-03654746) and trans-3-fluoro-3-[3-fluoro-4-(pyrrolidin-1-ylmethyl)phenyl]-N-(2-methylpropyl)cyclobutanecarboxamide (PF-03654764)” (J Med Chem, 2011).
“And” between values parts separate entries of the source, which are not always exact repeats. Identical values can stand only once.

Tests used:
in vitro [1] = conditions: human, Caco-2
Description: Permeability across apical to basolateral side in human Caco2 cells at 2 uM

in vitro [2] = conditions: human, plasma
Description: Fraction unbound in human plasma

[3] = AUC (0 to 24 hrs) in po dosed Sprague-Dawley rat administered for 4 days; type: ADME, organism-based; parameters: time < 24 hr, route oral; conditions: plasma
Rattus norvegicus [4] = experiment: Toxicity in Sprague-Dawley rat assessed as compound-induced phospholipidosis in lung at >= 50 mg/kg, po administered for 4 days; type: organism-based; parameters: dose 50 mg/kg, route oral; conditions: in vivo, 96 h
in vivo [5] = conditions: beagle, dog, plasma, po
Description: AUC (0 to 24 hrs) in po dosed beagle dog administered for 7 days

Liver microsomes = conditions: human
Description: Unbound intrinsic clearance in human liver microsomes

Histamine H3 receptor [6] = molecular target: T1, Histamine H3 receptor (Homo sapiens, UniProt Q9Y5N1)
T1 sequence (Q9Y5N1 whole entry): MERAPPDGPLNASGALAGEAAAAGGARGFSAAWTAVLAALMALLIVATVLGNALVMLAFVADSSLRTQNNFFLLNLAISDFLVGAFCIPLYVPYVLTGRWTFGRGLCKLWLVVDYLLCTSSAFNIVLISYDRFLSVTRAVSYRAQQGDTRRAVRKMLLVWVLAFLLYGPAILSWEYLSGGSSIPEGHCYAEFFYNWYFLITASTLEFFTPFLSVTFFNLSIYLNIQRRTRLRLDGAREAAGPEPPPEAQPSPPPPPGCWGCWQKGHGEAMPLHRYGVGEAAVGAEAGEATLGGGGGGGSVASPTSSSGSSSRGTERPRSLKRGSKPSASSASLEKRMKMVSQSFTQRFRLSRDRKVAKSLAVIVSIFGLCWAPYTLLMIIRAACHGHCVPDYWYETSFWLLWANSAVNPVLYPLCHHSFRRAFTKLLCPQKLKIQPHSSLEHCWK
Description: Antagonist activity at human histamine H3 receptor expressed in human HEK293 cells assessed as inhibition of forskolin-induced cAMP release pretreated 10 mins prior forskolin stimulation measured after 4.5 hrs by spectrofluorimetric analysis

MDR1 (human) = experiment: in vitro; conditions: dog, MDCK-MDR1
Description: Efflux ratio of permeability across basal to apical side over apical to basolateral side in dog MDCK cells expressing human MDR1

Histamine H3 receptor [7] = molecular target: T2, Histamine H3 receptor (Rattus norvegicus, UniProt Q9QYN8)
T2 sequence (Q9QYN8 whole entry): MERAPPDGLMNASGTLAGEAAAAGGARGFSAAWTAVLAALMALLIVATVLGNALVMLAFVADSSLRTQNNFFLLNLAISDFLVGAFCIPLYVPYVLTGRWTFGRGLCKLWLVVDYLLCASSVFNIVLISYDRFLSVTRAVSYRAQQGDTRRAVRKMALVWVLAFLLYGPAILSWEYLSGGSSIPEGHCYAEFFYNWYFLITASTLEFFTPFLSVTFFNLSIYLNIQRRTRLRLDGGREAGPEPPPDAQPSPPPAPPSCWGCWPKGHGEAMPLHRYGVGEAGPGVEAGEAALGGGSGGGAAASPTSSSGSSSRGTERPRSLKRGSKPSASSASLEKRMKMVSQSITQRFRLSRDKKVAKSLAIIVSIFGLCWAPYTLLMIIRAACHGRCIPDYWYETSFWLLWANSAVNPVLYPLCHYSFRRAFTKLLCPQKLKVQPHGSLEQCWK
Description: Displacement of [3H]-n-alpha-methylhistamine from rat histamine H3 receptor homogenate after 60 mins by scintillation counting

Canis familiaris [8] = experiment: Toxicity in beagle dog assessed as compound-induced cadiomyocyte vacuole formation at 10 mg/kg, po administered for 7 days; type: organism-based, Canis lupus familiaris; parameters: dose 10 mg/kg, route oral; conditions: in vivo, 168 h
in vitro [9] = conditions: rat, plasma
Description: Fraction unbound in rat plasma

in vitro [10] = conditions: human, liver microsomes
Description: Half life in human liver microsomes

in vivo [11] = conditions: Sprague-Dawley, rat, po
Description: Toxicity in po dosed Sprague-Dawley rat administered for 14 days

Histamine H3 receptor [12] = molecular target: T2, Histamine H3 receptor; remark: listed apart in the source
Description: Antagonist activity at rat histamine H3 receptor expressed in human HEK293 cells assessed as inhibition of forskolin-induced cAMP release pretreated 10 mins prior forskolin stimulation measured after 4.5 hrs by spectrofluorimetric analysis

Rattus norvegicus [13] = experiment: Toxicity in Sprague-Dawley rat assessed as mortality at 400 mg/kg, po administered for 4 days; type: organism-based; parameters: dose 400 mg/kg, route oral; conditions: in vivo, 96 h
[14] = Cmax in Sprague-Dawley rat at 400 mg/kg, po administered for 4 days; type: ADME, organism-based; parameters: dose 400 mg/kg, route oral; conditions: in vivo
Rattus norvegicus [15] = experiment: Toxicity in Sprague-Dawley rat assessed as compound-induced phospholipidosis at 30 mg/kg, po administered for 14 days; type: organism-based; parameters: dose 30 mg/kg, route oral; conditions: in vivo, 336 h
in vivo [16] = conditions: Sprague-Dawley, rat, plasma, po
Description: AUC (0 to 24 hrs) in po dosed Sprague-Dawley rat administered for 14 days

[17] = Cmax in po dosed Sprague-Dawley rat administered for 4 days; type: ADME, organism-based; parameters: route oral; conditions: in vivo
in vivo [18] = conditions: Sprague-Dawley, rat, po; remark: listed apart in the source
Description: Tmax in po dosed Sprague-Dawley rat administered for 4 days

[19] = Genotoxicity in micronucleus
[20] = molecular target: Voltage-gated inwardly rectifying potassium channel KCNH2 (Homo sapiens, UniProt Q12809); experiment: Inhibition of human Erg expressed in human HEK293 cells; type: cell-based
Sequence of Voltage-gated inwardly rectifying potassium channel KCNH2 (Q12809 whole entry): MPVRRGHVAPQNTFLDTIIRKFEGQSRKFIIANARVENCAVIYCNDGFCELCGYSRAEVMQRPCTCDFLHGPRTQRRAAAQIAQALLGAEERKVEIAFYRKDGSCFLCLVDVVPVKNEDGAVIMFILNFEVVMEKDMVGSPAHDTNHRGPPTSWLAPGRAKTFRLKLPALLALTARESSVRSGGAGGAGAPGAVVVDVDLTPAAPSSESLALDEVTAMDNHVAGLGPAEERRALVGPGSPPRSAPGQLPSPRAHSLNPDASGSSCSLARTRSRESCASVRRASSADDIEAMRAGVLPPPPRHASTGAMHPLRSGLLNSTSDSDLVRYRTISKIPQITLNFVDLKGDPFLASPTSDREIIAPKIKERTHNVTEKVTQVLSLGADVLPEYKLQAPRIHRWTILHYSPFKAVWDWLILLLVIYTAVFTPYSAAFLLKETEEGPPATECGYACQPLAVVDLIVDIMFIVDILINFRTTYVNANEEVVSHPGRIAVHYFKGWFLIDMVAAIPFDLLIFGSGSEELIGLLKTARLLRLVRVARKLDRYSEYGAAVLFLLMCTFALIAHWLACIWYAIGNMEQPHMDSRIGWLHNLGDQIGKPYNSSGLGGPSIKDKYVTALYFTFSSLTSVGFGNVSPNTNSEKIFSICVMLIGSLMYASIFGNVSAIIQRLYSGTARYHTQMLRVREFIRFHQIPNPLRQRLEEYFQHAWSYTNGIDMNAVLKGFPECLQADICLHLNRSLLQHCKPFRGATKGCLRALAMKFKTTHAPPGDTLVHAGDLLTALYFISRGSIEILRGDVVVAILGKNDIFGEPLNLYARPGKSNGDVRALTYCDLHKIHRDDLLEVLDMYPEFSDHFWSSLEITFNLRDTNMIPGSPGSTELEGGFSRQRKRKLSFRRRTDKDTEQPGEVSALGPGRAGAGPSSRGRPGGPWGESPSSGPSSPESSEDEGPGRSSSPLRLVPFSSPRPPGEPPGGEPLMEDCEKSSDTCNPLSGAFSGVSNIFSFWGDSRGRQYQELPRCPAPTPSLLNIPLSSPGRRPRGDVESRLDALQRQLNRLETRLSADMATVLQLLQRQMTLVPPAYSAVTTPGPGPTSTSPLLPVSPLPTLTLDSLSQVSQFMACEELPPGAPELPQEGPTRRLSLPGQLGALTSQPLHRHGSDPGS

Histamine H3 receptor [21] = molecular target: T1, Histamine H3 receptor; remark: listed apart in the source
Description: Displacement of [3H]-n-alpha-methylhistamine from human histamine H3 receptor homogenate after 60 mins by scintillation counting

[22] = AUC in Sprague-Dawley rat at >[…] mg/kg, po administered for 4 days; type: ADME, organism-based; conditions: plasma, 50 mg/kg
Canis familiaris [23] = experiment: Toxicity in beagle dog assessed as compound-induced cadiomyocyte vacuole formation at 25 mg/kg, po administered for 7 days; type: organism-based, Canis lupus familiaris; parameters: dose 25 mg/kg, route oral; conditions: in vivo, 168 h
in vivo [24] = conditions: beagle, dog, po
Description: Cmax in po dosed beagle dog administered for 7 days

in vivo [25] = conditions: beagle, dog, po; remark: listed apart in the source
Description: Toxicity in po dosed beagle dog administered for 7 days

in vivo [26] = conditions: beagle, dog, po; remark: listed apart in the source
Description: Tmax in po dosed beagle dog administered for 7 days

[27] = Toxicity in po dosed Sprague-Dawley rat administered for 4 days; type: organism-based; conditions: in vivo
[28] = Apparent permeability across apical to basolateral side in MDCK cells at 2 uM; type: ADME, cell-based, Canis lupus familiaris; conditions: dog
in vivo [29] = conditions: Sprague-Dawley, rat, po; remark: listed apart in the source
Description: Cmax in po dosed Sprague-Dawley rat administered for 14 days

[30] = AUC in Sprague-Dawley rat at 5 mg/kg, po administered for 4 days; type: ADME, organism-based; parameters: dose 5 mg/kg, route oral; conditions: plasma
in vivo [31] = conditions: Sprague-Dawley, rat, po; remark: listed apart in the source
Description: Tmax in po dosed Sprague-Dawley rat administered for 14 days

Rattus norvegicus [32] = experiment: Toxicity in Sprague-Dawley rat assessed as compound-induced phospholipidosis in kidney at >= 50 mg/kg, po administered for 4 days; type: organism-based; parameters: dose 50 mg/kg, route oral; conditions: in vivo, 96 h
Rattus norvegicus [33] = experiment: Toxicity in Sprague-Dawley rat assessed as compound-induced phospholipidosis at 5 to 30 mg/kg, po administered for 14 days; type: organism-based; parameters: dose 5-30 mg/kg, route oral; conditions: in vivo, 336 h
[34] = AUC in Sprague-Dawley rat at >[…] mg/kg, po administered for 14 days measured on day 1; type: ADME, organism-based; conditions: plasma, 50 mg/kg
[35] = human, thle, 24 h
Description: Toxicity in human THLE cells assessed as drug-induced phospholipid accumulation after 24 hrs by Hoechst staining-based microscopic analysis

Rattus norvegicus [36] = experiment: Toxicity in Sprague-Dawley rat assessed as compound-induced phospholipidosis in lung at >= 50 mg/kg, po administered for 14 days; type: organism-based; parameters: dose 50 mg/kg, route oral; conditions: in vivo, 336 h
Rattus norvegicus [37] = experiment: Toxicity in Sprague-Dawley rat assessed as compound-induced phospholipidosis in liver at >= 50 mg/kg, po administered for 14 days; type: organism-based; parameters: dose 50 mg/kg, route oral; conditions: in vivo, 336 h
Homo sapiens [38] = species on record: Homo sapiens; experiment: Selectivity ratio of Ki for human histamine H4 receptor to Ki for human histamine H3 receptor
Homo sapiens [39] = species on record: Homo sapiens; experiment: Selectivity ratio of Ki for human histamine H2 receptor to Ki for human histamine H3 receptor
Homo sapiens [40] = species on record: Homo sapiens; experiment: Selectivity ratio of Ki for human histamine H1 receptor to Ki for human histamine H3 receptor
in vivo [41] = conditions: Sprague-Dawley, rat, po; remark: listed apart in the source
Description: Oral bioavailability in Sprague-Dawley rat

Description for physchem: Dissociation constant, pKa of the compound

SMILES	Papp A→B at 2 µM (in vitro [1])	fraction unbound (in vitro [2])	AUC at 24 h (in vivo [5])	CL free (Liver microsomes)	Ki (Histamine H3 receptor [6])	efflux ratio (MDR1 (human))	Ki (Histamine H3 receptor [7])	fraction unbound (in vitro [9])	half-life (in vitro [10])	MTD at 336 h (in vivo [11])	Ki (Histamine H3 receptor [12])	pKa (physchem)	AUC at 24 h (in vivo [16])	Tmax at 96 h (in vivo [18])	Ki (Histamine H3 receptor [21])	Cmax at 168 h (in vivo [24])	MTD at 168 h (in vivo [25])	Tmax at 168 h (in vivo [26])	Cmax at 336 h (in vivo [29])	Tmax at 336 h (in vivo [31])	other results
c1cc([C@H]2C[C@@H](CN3CCOCC3)C2)ccc1CN1CCCC1	8.2 ×10⁻⁶ cm/s	0.78	740 ng·h/mL	< 8 mL/min/kg	0.89 nM	< 0.95	7.7 nM	0.72	> 120 min	≥ 30 mg/kg	3.5 nM	7.7	15500 ng·h/mL	30 min	2.2 nM	148 nM	< 10 mg/kg	30 min	5000 nM	30 min	AUC at 24 h [3]: 1240 ng·h/mL; Activity (Rattus norvegicus [4]): Toxic; Activity (Canis familiaris [8]): Toxic; Activity (Rattus norvegicus [13]): Toxic; Cmax [14]: 3920 ng/mL; Activity (Rattus norvegicus [15]): Non-toxic; Cmax [17]: 302 nM; Activity [19]: Non-toxic; IC50 [20]: 300000 nM; AUC at 96 h [22]: 17400 ng·h/mL; Activity (Canis familiaris [23]): Toxic; MTD at 96 h [27]: ≥ 5 mg/kg; Papp A→B at 2 µM [28]: > 10 ×10⁻⁶ cm/s; AUC at 96 h [30]: 1240 ng·h/mL; Activity (Rattus norvegicus [32]): Toxic; Activity (Rattus norvegicus [33]): Toxic
c1cnc(OC[C@H]2C[C@H](c3ccc(CN4CCCC4)cc3)C2)nc1	32.5 ×10⁻⁶ cm/s	0.44	–	< 8 mL/min/kg	12 nM	0.9	82 nM	0.47	> 120 min	≥ 5 mg/kg	79 nM	9.8	1280 ng·h/mL	30 min	8.7 nM	–	–	30 min	402 nM	30 min	AUC at 336 h [34]: 21300 ng·h/mL; MED [35]: 119.5 µM; Activity (Rattus norvegicus [36]): Toxic; Activity (Rattus norvegicus [37]): Toxic
CC(C)CNC(=O)[C@H]1C[C@@](F)(c2ccc(CN3CCCC3)c(F)c2)C1 [PF-03654764]	38.8 ×10⁻⁶ cm/s	0.34	18200 ng·h/mL	< 5 mL/min/kg	1.2 nM and 1.05 nM	0.96	19 nM	0.56	> 120 min	≥ 300 mg/kg	7.9 nM	9.2	67400 ng·h/mL	30 min	1.4 nM	18000 nM	≥ 15 mg/kg	30 min	23000 nM	30 min	Ratio Ki (Homo sapiens [38]): > 1000; Ratio Ki (Homo sapiens [39]): > 1000; Ratio Ki (Homo sapiens [40]): > 1000; bioavailability (in vivo [41]): 20.2%
